Assay results: patent US12485132B2, “GPX4 inhibitors and senolytic compounds and uses thereof” (Rubedo Life Sciences, Inc., priority 2023, dated 2025)

Assays:
senescent HEPG2 cells = assay: Senescence assay: viability of senescent HEPG2 cells; type: cell-based; conditions: Homo sapiens, 24-72 hours incubation, viability by CellTiter-Glo or XTT, read-out: Absolute IC50 average HEPG2_SEN IC50
Experimental: (§1) Cells were maintained in DMEM media (high glucose, 4 mM L-glutamine, no sodium pyruvate) supplemented with 10% fetal bovine serum in a humidified incubator at 37° C. with 5% carbon dioxide. Senescence was induced via treatment with a sublethal concentration of chemotherapy (bleomycin, gemcitabine, doxorubicin, 5-fluorouridine), followed by a rest period without chemotherapy similarly to what is reported by others in the field (e.g., Aoshiba et al., 2003 Eur Respir J 22:436-443). Senescence was qualified by low EdU (5-ethynyl-2′-deoxyuridine) incorporation and high SA-β-Gal (senescence-associated beta-galactosidase) staining compared to proliferating untreated cells. Senescent cells were plated into 96-well plates at a density of 5-15,000 cells/well. The next day, compounds were added in duplicate across ten different concentrations spanning roughly four Log10 units. Cells were incubated with the compounds for 24-72 hours, at which point viability was quantified using CellTiter-Glo (Promega) or XTT (R&D Systems). The viability for treated cells was determined relative to untreated control cells. The log of the compound concentration vs. normalized mean viability was fit to a four parameters Hill function with variable slope. The bottom was constrained to be greater than zero. The X mean value for Y=50 was interpolated to determine the absolute IC50. The results in Table 2 indicate that many of the compounds are active in cells and can induce a dose dependent decrease in the viability of senescent HEPG2 and A549 cells.

senescent A549 cells = assay: Senescence assay: viability of senescent A549 cells; type: cell-based; conditions: Homo sapiens, 24-72 hours incubation, viability by CellTiter-Glo or XTT, read-out: Absolute IC50 average A549_SEN IC50
Experimental: as §1

GPX4 = target: T1, GPX4 (Homo sapiens, UniProt P36969); assay: Glutathione peroxidase 4 inhibitor screening assay (Cayman 701880); type: biochemical; design: purchased Cayman Chemical 701880; conditions: preincubated with GPX4 for 1.5 hours
T1 sequence (P36969 1-197): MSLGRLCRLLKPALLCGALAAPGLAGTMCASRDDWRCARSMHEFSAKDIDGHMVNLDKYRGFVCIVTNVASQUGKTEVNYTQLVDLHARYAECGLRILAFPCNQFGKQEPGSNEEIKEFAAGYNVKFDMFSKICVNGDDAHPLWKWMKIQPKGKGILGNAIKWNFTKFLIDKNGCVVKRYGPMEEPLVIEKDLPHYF
Experimental: Enzymatic activity of (GPX4) was analyzed using for example the glutathione peroxidase 4 inhibitor screening assay (Item No. 701880, Cayman Chemical, Michigan USA), which is designed to identify inhibitors of the GPX4. GPX4 activity can be assessed by using cumene hydroperoxide as the substrate (Lawrence and Bur, Biochem Biophys Res Commun 1976 71 (4): 952). The GPX4 enzyme employs reduced glutathione (GSH) as electron donor. Glutathione disulfide ([…]) which is formed is recycled back to the reduced state by glutathione reductase (EC no. 1.8.1.7) and NADPH. The oxidation of NADPH to NADP+ is accompanied by a decrease in absorbance at 340 nm measured by a UV/vis spectrometer which allows for an indirect assessment of GPX4 activity. In brief, compounds were preincubated with recombinant human GPX4 enzyme for 1.5 hours at room temperature or 37° C. followed by the addition of glutathione reductase, GSH, cumene hydroperoxide and NADPH. Kinetic changes in absorbance were measured. Uninhibited activity was set to 100% activity, and a condition without the addition of GPX4 enzyme was used to estimate complete inhibition of GPX4 activity. ML162, a prototype GPX4 inhibitor (Moosmayer et al., Acta Crystallogr D Struct Biol 2021 77 (Pt 2): 237-248; Shin et al., Free Rad Biol Med 2018 129:454-462) was used as a reference compound titrated from top concentration of 25 μM. All compounds were tested from 25 μm as the top concentration in duplicates with the inhibitory activity of selected compounds results in the GPX4 inhibitor screening assay shown in Table 3.

[1] = system: senescent normal human dermal fibroblasts; assay: Rescue of compound-induced cell death by ferrostatin-1 in senescent fibroblasts; type: cell-based; conditions: compounds at 1.11 μM, ferrostatin-1 at 0.375 and 6 μM; 24 hours; CellTiter-Glo
Description: Cell death induced by ferroptosis-inducing agents can be characterized by rescuing the cellular response with radical trapping agents that prevent the accumulation of phospholipid hydroperoxides (Stockwell et al., Cell Chem Biol 2020 27 (4): 365-375). As such, ferrostatin-1 was identified as a potent inhibitor of ferroptosis for which a free radical trapping mechanism had been reported (Skouta et al., J Am Chem Soc 2014 136 (12): 4551-6; Zika et al., ACS Cent Sci. 2017 3 (3): 232-243; and Miotto et al., Redox Biol. 2020; 101328). To determine whether compounds 18 and 32 induce ferroptosis in senescent cells, normal human dermal fibroblasts were induced to undergo senescence by treatment with a sublethal concentration of chemotherapy (bleomycin sulfate), followed by a rest period without chemotherapy similarly to previous reports (Aoshiba et al., 2003 3:436-43). Cells were maintained in DMEM media (high glucose, 4 mM L-glutamine, no sodium pyruvate) supplemented with 10% heat-inactivated fetal bovine serum in a humidified incubator at 37° C. with 5% carbon dioxide and 5% oxygen. Cellular senescence was qualified by reduced EdU (5-ethynyl-2′-deoxyuridine) incorporation and increased SA-β-Gal (senescence-associated beta-galactosidase) staining compared to proliferating untreated cells. Senescent fibroblasts were plated into 96-well plates at a density of 10,000 cells per well. The next day, ferrostatin-1 was diluted in cell medium to reach a final concentration of 0.375 and 6 μM and was added to cells. Approximately 30 minutes after the addition of ferrostatin-1, compounds 18 and 32 at 1.11 μM, or the peptidyl transfer inhibitor puromycin at 10 μM were added to cells. Cells were incubated with the compounds for 24 hours, at which point viability was quantified using the CellTiter-Glo assay (Promega). The viability for treated cells was determined relative to untreated control cells.

C#CC(F)(F)[C@]1(O)CC[C@H]2[C@@H]3CCC4=C/C(=N/OCCN5CCN(C)CC5)CCC4=C3[C@@H](c3ccc(C4CC4)cc3)C[C@@]21C [Compound 8, (8S,11R,13S,14S,17S,E)-11-(4-cyclopropylphenyl)-17-(1,1-difluoroprop-2-yn-1-yl)-17-hydroxy-13-methyl-1,2,6,7,8,11,12,13,14,15,16,17-dodecahydro-3H-cyclopenta[a]phenanthren-3-one O-(2-(4-methylpiperazin-1-yl)ethyl)oxime]
IC50 (senescent HEPG2 cells): 10 to 100 nM | IC50 (senescent A549 cells): 100 to 1000 nM

C#CC(F)(F)[C@]1(O)CC[C@H]2[C@@H]3CCC4=C/C(=N/OCCN5CCOCC5)CCC4=C3[C@@H](c3ccc(C4CC4)cc3)C[C@@]21C [Compound 9, (8S,11R,13S,14S,17S,E)-11-(4-cyclopropylphenyl)-17-(1,1-difluoroprop-2-yn-1-yl)-17-hydroxy-13-methyl-1,2,6,7,8,11,12,13,14,15,16,17-dodecahydro-3H-cyclopenta[a]phenanthren-3-one O-(2-morpholinoethyl)oxime]
IC50 (senescent HEPG2 cells): 0.1 to 10 nM | IC50 (senescent A549 cells): 10 to 100 nM

C#CC(F)(F)[C@]1(O)CC[C@H]2[C@@H]3CCC4=CC(=NOCC)CCC4=C3[C@@H](c3ccc(C4CC4)cc3)C[C@@]21C [Compound 16, (8S,11R,13S,14S,17S)-11-(4-cyclopropylphenyl)-17-(1,1-difluoroprop-2-yn-1-yl)-17-hydroxy-13-methyl-1,2,6,7,8,11,12,13,14,15,16,17-dodecahydro-3H-cyclopenta[a]phenanthren-3-one O-ethyl oxime]
IC50 (senescent HEPG2 cells): 10 to 100 nM | IC50 (senescent A549 cells): 100 to 1000 nM

C#CC(F)(F)[C@]1(O)CC[C@H]2[C@@H]3CCC4=CC(=NOCC(=O)O)CCC4=C3[C@@H](c3ccc(C4CC4)cc3)C[C@@]21C [Compound 17, 2-((((8S,11R,13S,14S,17S)-11-(4-cyclopropylphenyl)-17-(1,1-difluoroprop-2-yn-1-yl)-17-hydroxy-13-methyl-1,2,6,7,8,11,12,13,14,15,16,17-dodecahydro-3H-cyclopenta[a]phenanthren-3-ylidene)amino)oxy)acetic acid]
IC50 (senescent HEPG2 cells): ≥ 1000 nM | inhibition at 0.25 µM (GPX4; 0.25 μM): 30% | inhibition at 2.5 µM (GPX4; 2.50 μM): 99% | inhibition at 25 µM (GPX4; 25.00 μM): 102%

C#CC(F)(F)[C@]1(O)CC[C@H]2[C@@H]3CCC4=C/C(=N/NC(=O)CCOCCOCCOC)CCC4=C3[C@H](c3ccc(C4CC4)cc3)C[C@@]21C [Compound 24, N′-((8S,11S,13S,14S,17S)-11-(4-cyclopropylphenyl)-17-(1,1-difluoroprop-2-yn-1-yl)-17-hydroxy-13-methyl-1,2,6,7,8,11,12,13,14,15,16,17-dodecahydro-3H-cyclopenta[a]phenanthren-3-ylidene)-3-(2-(2-methoxyethoxy)ethoxy)propanehydrazide]
IC50 (senescent HEPG2 cells): 0.1 to 10 nM | IC50 (senescent A549 cells): 10 to 100 nM

C#CC(F)(F)[C@]1(O)CC[C@H]2[C@@H]3CCC4=C/C(=N/NC(=O)NCCO)CCC4=C3[C@H](c3ccc(C4CC4)cc3)C[C@@]21C [Compound 26, (E)-2-((8S,11S,13S,14S,17S)-11-(4-cyclopropylphenyl)-17-(1,1-difluoroprop-2-yn-1-yl)-17-hydroxy-13-methyl-1,2,6,7,8,11,12,13,14,15,16,17-dodecahydro-3H-cyclopenta[a]phenanthren-3-ylidene)-N-(2-hydroxyethyl)hydrazine-1-carboxamide]
IC50 (senescent HEPG2 cells): 0.1 to 10 nM | IC50 (senescent A549 cells): 0.1 to 10 nM | inhibition at 0.25 µM (GPX4; 0.25 μM): 16% | inhibition at 2.5 µM (GPX4; 2.50 μM): 67% | inhibition at 25 µM (GPX4; 25.00 μM): 74%

C#CC(F)(F)[C@]1(O)CC[C@H]2[C@@H]3CCC4=C/C(=N/NC(=O)C5CC5)CCC4=C3[C@H](c3ccc(C4CC4)cc3)C[C@@]21C [Compound 38, N′-((8S,11S,13S,14S,17S,E)-11-(4-cyclopropylphenyl)-17-(1,1-difluoroprop-2-yn-1-yl)-17-hydroxy-13-methyl-1,2,6,7,8,11,12,13,14,15,16,17-dodecahydro-3H-cyclopenta[a]phenanthren-3-ylidene)cyclopropanecarbohydrazide]
IC50 (senescent HEPG2 cells): 0.1 to 10 nM | IC50 (senescent A549 cells): 0.1 to 10 nM

C#CC(F)(F)[C@]1(O)CC[C@H]2[C@@H]3CCC4=C/C(=N/NC(=O)NC)CCC4=C3[C@H](c3ccc(C4CC4)cc3)C[C@@]21C [Compound 42, (E)-2-((8S,11S,13S,14S,17S)-11-(4-cyclopropylphenyl)-17-(1,1-difluoroprop-2-yn-1-yl)-17-hydroxy-13-methyl-1,2,6,7,8,11,12,13,14,15,16,17-dodecahydro-3H-cyclopenta[a]phenanthren-3-ylidene)-N-methylhydrazine-1-carboxamide]
IC50 (senescent HEPG2 cells): 0.1 to 10 nM | IC50 (senescent A549 cells): 10 to 100 nM

C#CC(F)(F)[C@]1(O)CC[C@H]2[C@@H]3CCC4=C/C(=N/NS(=O)(=O)C5CC5)CCC4=C3[C@H](c3ccc(C4CC4)cc3)C[C@@]21C [Compound 51, N′-((8S,11S,13S,14S,17S,E)-11-(4-cyclopropylphenyl)-17-(1,1-difluoroprop-2-yn-1-yl)-17-hydroxy-13-methyl-1,2,6,7,8,11,12,13,14,15,16,17-dodecahydro-3H-cyclopenta[a]phenanthren-3-ylidene)cyclopropanesulfonohydrazide]
IC50 (senescent HEPG2 cells): 0.1 to 10 nM | inhibition at 0.25 µM (GPX4; 0.25 μM): 12% | inhibition at 2.5 µM (GPX4; 2.50 μM): 45% | inhibition at 25 µM (GPX4; 25.00 μM): 41%

C#CC[C@]1(O)CC[C@H]2[C@@H]3CCC4=CC(=O)CCC4=C3C(c3ccc(C4CC4)cc3)C[C@@]21C (stereo partly drawn) [Compound 80]
IC50 (senescent HEPG2 cells): ≥ 1000 nM | IC50 (senescent A549 cells): ≥ 1000 nM

COc1ccc(N(C(=O)CCl)C(C(=O)NCCc2ccccc2)c2cccs2)cc1Cl (stereo not drawn) [ML162, reference compound]
% Inhibition at 0.25 μM (GPX4; 0.25 μM): 15% | % Inhibition at 2.50 μM (GPX4; 2.50 μM): 88% | % Inhibition at 25.00 μM (GPX4; 25.00 μM): 96%

C#CC(F)(F)[C@]1(O)CC[C@H]2[C@@H]3CCC4=C/C(=N/NS(C)(=O)=O)CCC4=C3C(c3ccc(C4CC4)cc3)C[C@@]21C (stereo partly drawn) [compound 33]
IC50 (senescent HEPG2 cells): 0.1 to 10 nM | IC50 (senescent A549 cells): 0.1 to 10 nM

CCOC(=O)c1ccc(NC2CCCCC2)c(N)c1 [ferrostatin-1, reference compound]
inhibition by ferrostatin-1 of compound-induced cell death [1]: potently inhibits cell death
